{"source": "patent US6846505B2", "about": "“Anti-oxidant” (Danisco A/S, priority 1999, dated 2005)", "key": {"[1]": {"test_system": "mushroom polyphenol oxidase (PPO)", "experiment": "Polyphenol oxidase (PPO) inhibition, tyrosine substrate, absorbance at 475 nm", "assay_type": "biochemical", "settings": "for OD475 nm (browning product formation): 10 ppm APP, 24° C., pH 6.5", "experimental": "Principle and Goal: PPO is one of the enzymes involved in oxidative browning of vegetables and fruits. […] Blank: To 20 μl PPO (20 units, from mushroom. Sigma product. EC 1.14.18.1) was added 0.45 ml water, 0.43 ml phosphate buffer (0.2M Na2HPO4—NaH2PO4, pH6.5), so the final volume was 0.9 ml Control: To 20 μl PPO was added 0.15 ml water, 0.43 ml phosphate buffer (0.2M Na2HPO4—NaH2PO4, pH6.5), then 0.3 ml tyrosine (1 mM, BDH product). Time course progress of the reaction was monitored at room temperature (24° C.) at 475 nm by using a Perkin Elmer UV/VIS Lambda 18 spectrophotometer. Test: To 20 μl PPO was added 0.143 ml water, 7 μl APP (final 10 ppm), 0.430 ml phosphate buffer (0.2M Na2HPO4—NaH2PO4, pH6.5), then 0.3 ml tyrosine (1 mM, BDH product). Time course progress of the reaction was monitored as above. Table 1. Inhibition of 10 ppm APP on polyphenol oxidase (PPO) as indicated by very slow increase at absorbance 475nm compared to control. Higher values at OD475 nm indicate more browning product formation."}, "[2]": {"experiment": "β-carotene method: de-coloration of beta-carotene by oxygen and oxidative intermediates of linoleic acid (OD470 nm)", "description": "(§1) The following five methods were used to evaluate compounds in accordance with the present invention. […] Note: both MDA and 4-HNE are the oxidation products of polyunsaturated fatty acids from lipids. • 3. β-carotene method was used to measure the protection of β-carotene oxidation by lipid peroxide in the presence of an added anti-oxidant. • 4. DPPH (1,1-diphenyl-2-picrylhydrazyl) method was used to measure the radical scavenging activity of an anti-oxidant towards the radical DPPH. • 5. polyphenol oxidase (PPO) method was used to measure the inhibition of polyphenol oxidase in vegetables, fruits and mushrooms.\nPrinciple and Goal: Carotenes are one of the pigments which may be used to give a healthy colour to food or drinks. They are therefore used as food colorant. β-Carotene is also the precursor for vitamin A. Carotenoid molecules are highly unsaturated and are prone to oxidative degradation; which is stimulated by light, enzymes, metals, and co-oxidation with lipid hydroperoxides.\nIn the system used, beta-carotene was exposed to oxygen and the oxidative intermediates of linoleic acid.\nThe assay was performed according to H. E. Miller (JAOSC (1970) 48: 91). The assay system consisted of beta-carotene, linoleic acid, and Tween 40. In the blank, no anti-oxidant was added, while in the tests, either APP in a concentration of 2.5-25 ppm or sodium ascorbate in a concentration of 100-500 ppm was added. The mixtures were incubated in the dark for the time and temperature indicated (see Table 2.1 and 2.2). The absorbance was then measured at 470 nm. The absorbance provided an indication of beta-carotene content. Lower OD470 nm values indicate more degradation of beta-carotene."}, "[3]": {"experiment": "LPO method: MDA and 4HNE from oxidation of linoleic acid (OD586 nm)", "settings": "for OD586 nm of the APP test / OD586 nm of the ascorbate test: 24° C. in the dark for 10 days", "description": "as §1\nPrinciple and Goal: A major area for use of antioxidants in food-related products are their ability to prevent the oxidation of polyunsaturated fatty acids in lipids. The oxidation of lipids and fatty acids is a major problem in food.\nAssay Conditions: The assay of MDA and 4HNE was performed by the LPO method, using the assay kit from OXIS International, Inc. (Portland, Oreg., USA) and according to their protocol. The assay mixture for the blank contained linoleic acid and Tween 40. For the tests, APP or sodium ascorbate was added. After incubation at 24° C. in the dark for 10 days, the samples were assayed for MDA and 4HNE contents as indicated by their absorbance at 586 nm as given in Table 3. Higher OD586 nm values indicate higher content of MDA and 4HNE, and therefore more degradation of linoleic acid."}, "[4]": {"settings": "disclosed tests of reference [3]; cited from earlier work"}, "apple slices": {"test_system": "apple slices", "experiment": "Browning of apple slices (Example 1, FIG. 2)", "settings": "prolonged period, weeks or months, at room temperature", "description": "Compounds of the present invention were investigated as an anti-browning agent in vegetable and fruit products."}}, "data": [{"smiles": "O=C1C(O)=COC(CO)C1O", "note": "[APP, 1,5-Anhydro-D-glycero-hex-1-en-3-ulose]", "values": [{"measurement": "Inhibition of PPO (in words)", "setting": "[1]", "result": "efficient inhibitor"}, {"measurement": "OD475 nm (browning product formation)", "setting": "[1]; reaction time 0 min", "result": 0}, {"measurement": "OD475 nm (browning product formation)", "setting": "[1]; reaction time 1 min", "result": 0}, {"measurement": "OD475 nm (browning product formation)", "setting": "[1]; reaction time 3 min", "result": 0}, {"measurement": "OD475 nm (browning product formation)", "setting": "[1]; reaction time 5 min", "result": 0}, {"measurement": "OD475 nm (browning product formation)", "setting": "[1]; reaction time 7 min", "result": 0.0005}, {"measurement": "OD475 nm (browning product formation)", "setting": "[1]; reaction time 9 min", "result": 0.0017}, {"measurement": "OD475 nm (browning product formation)", "setting": "[1]; reaction time 11 min", "result": 0.0033}, {"measurement": "OD475 nm (browning product formation)", "setting": "[1]; reaction time 13 min", "result": 0.0056}, {"measurement": "OD475 nm (browning product formation)", "setting": "[1]; reaction time 15 min", "result": 0.0082}, {"measurement": "OD475 nm (browning product formation)", "setting": "[1]; reaction time 17 min", "result": 0.0122}, {"measurement": "OD475 nm (browning product formation)", "setting": "[1]; reaction time 19 min", "result": 0.0178}, {"measurement": "OD475 nm (browning product formation)", "setting": "[1]; reaction time 20 min", "result": 0.0209}, {"measurement": "Effect on oxidative de-coloration of beta-carotene (in words)", "setting": "[2]", "result": "delayed the oxidative de-coloration of beta-carotene"}, {"measurement": "The OD470 nm of the APP test", "setting": "[2]; 2.5 ppm, 37° C. for 161 min in the dark, lower OD = more degradation", "result": 0.264}, {"measurement": "The OD470 nm of the APP tests", "setting": "[2]; 2.5 ppm, 37° C. for 161 min then 24° C. for 17.5 hours in the dark", "result": 0.173}, {"measurement": "The OD470 nm of the APP test", "setting": "[2]; 6.2 ppm, 37° C. for 161 min in the dark", "result": 0.314}, {"measurement": "The OD470 nm of the APP tests", "setting": "[2]; 6.2 ppm, 37° C. for 161 min then 24° C. for 17.5 hours in the dark", "result": 0.270}, {"measurement": "The OD470 nm of the APP test", "setting": "[2]; 12.5 ppm, 37° C. for 161 min in the dark", "result": 0.322}, {"measurement": "The OD470 nm of the APP tests", "setting": "[2]; 12.5 ppm, 37° C. for 161 min then 24° C. for 17.5 hours in the dark", "result": 0.274}, {"measurement": "The OD470 nm of the APP test", "setting": "[2]; 25 ppm, 37° C. for 161 min in the dark", "result": 0.326}, {"measurement": "The OD470 nm of the APP tests", "setting": "[2]; 25 ppm, 37° C. for 161 min then 24° C. for 17.5 hours in the dark", "result": 0.263}, {"measurement": "Effectiveness relative to ascorbic acid in preventing the de-coloration of β-carotene", "setting": "[2]; FIG. 4", "result": "around 100 times"}, {"measurement": "Effect on oxidation of linoleic acid (in words)", "setting": "[3]", "result": "able to delay the oxidation of linoleic acid"}, {"measurement": "OD586 nm of the APP test", "setting": "[3]; 2.5 ppm, higher OD = more MDA and 4HNE", "result": 0.358}, {"measurement": "Efficiency in delaying the oxidative degradation of linoleic acid compared with ascorbic acid", "setting": "[3]; 6.2 ppm APP, FIG. 5", "result": "almost as efficient as 300 ppm ascorbic acid"}, {"measurement": "OD586 nm of the APP test", "setting": "[3]; 6.2 ppm", "result": 0.100}, {"measurement": "OD586 nm of the APP test", "setting": "[3]; 12.5 ppm", "result": 0.084}, {"measurement": "Function as an antibiotic", "setting": "[4]", "result": "did not function satisfactorily as an antibiotic"}]}, {"smiles": "O=C1O[C@H]([C@@H](O)CO)C([O-])=C1O.[Na+]", "note": "[Sodium ascorbate, sodium ascorbate, reference compound]", "values": [{"measurement": "The OD470 nm of the ascorbate test", "setting": "[2]; 100 ppm, 37° C. for 161 min in the dark", "result": "−0.01"}, {"measurement": "The OD470 nm of the ascorbate test", "setting": "[2]; 100 ppm, 37° C. for 161 min then 24° C. for 17.5 hours in the dark", "result": "−0.006"}, {"measurement": "The OD470 nm of the ascorbate test", "setting": "[2]; 300 ppm, 37° C. for 161 min in the dark", "result": 0.096}, {"measurement": "The OD470 nm of the ascorbate test", "setting": "[2]; 300 ppm, 37° C. for 161 min then 24° C. for 17.5 hours in the dark", "result": 0.102}, {"measurement": "The OD470 nm of the ascorbate test", "setting": "[2]; 500 ppm, 37° C. for 161 min in the dark", "result": 0.191}, {"measurement": "The OD470 nm of the ascorbate test", "setting": "[2]; 500 ppm, 37° C. for 161 min then 24° C. for 17.5 hours in the dark", "result": 0.200}, {"measurement": "OD586 nm of the ascorbate test", "setting": "[3]; 100 ppm", "result": 0.279}, {"measurement": "OD586 nm of the ascorbate test", "setting": "[3]; 300 ppm", "result": 0.097}, {"measurement": "OD586 nm of the ascorbate test", "setting": "[3]; 500 ppm", "result": 0.032}]}, {"smiles": "O=c1cc(CO)occ1O", "note": "[kojic acid]", "values": [{"measurement": "Prevention of browning of apple slices", "setting": "apple slices", "result": "completely prevent browning"}, {"measurement": "Inhibition of PPO (in words)", "setting": "[1]", "result": "inhibited"}]}, {"smiles": "O=C1O[C@H]([C@@H](O)CO)C(O)=C1O", "note": "[ascorbic acid, reference compound]", "values": [{"measurement": "Prevention of browning of apple slices", "setting": "apple slices", "result": "unable to do so"}]}]}
